Our source for the inhibition and IC50 values is patent US20250281424A1 (New York Blood Center, Inc, priority 2020, published 2025).

This assay deals with T1, human PF4 (Homo sapiens, UniProt P02776).
T1 construct: PF4 is a 70 amino acid, lysine-rich 7.8 kDa platelet-specific protein; made in house; host or cells: Escherichia coli BL21DE3 pLysS (pT7-7) and/or Drosophila S2 cells
T1 sequence (P02776 32-101): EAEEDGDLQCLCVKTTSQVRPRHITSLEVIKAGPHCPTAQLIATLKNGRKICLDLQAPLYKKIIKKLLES
The experiment in a line: Inhibition of PF4 tetramer formation (BS3 cross-linking, SDS-PAGE). Type of assay: biochemical. The note with it: for inhibition at 5 µM: 5 μM inhibitor; for inhibition at 5 µM / inhibition at 10 µM: read-out: % inhibition of PF4 tetramer formation at single concentration of inhibitor; for inhibition at 10 µM: 10 μM inhibitor (column A); for IC50: read-out: IC50 of PF4 tetramer formation inhibition. The essentials:
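Recombinant human wild-type PF4 (E. coli-expressed, heparin-purified), 10 μg/ml in PBS, incubated with compound 15 min at 37° C or 60 min at room temperature, then cross-linked with 0.2 mM BS3 for 30 min at room temperature. Reducing 12% SDS-PAGE; bands quantified as % tetramer, trimer, dimer, monomer versus compound-free control.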

The IC50 is the concentration that inhibits the measured activity by half. Turning to `CC(C)C(=O)NCC(=O)C1C(=O)c2ccc(C(=O)c3ccc4c(c3)C(=O)C(C(=O)CNC(=O)C(C)C)C4=O)cc2C1=O` (stereo not shown) [Example 187, 2-methyl-N-[2-(5-{2-[2-(2-methylpropanamido)acetyl]-1,3-dioxo-2,3-dihydro-1H-indene-5-carbonyl}-1,3-dioxo-2,3-dihydro-1H-inden-2-yl)-2-oxoethyl]propanamide], the inhibition at 5 µM came out at 88%, the inhibition at 10 µM was determined as 90% and the IC50 came to 2.6 µM.

Consider `CC(C)(C)OC(=O)N[C@@H](CC(=O)O)C(=O)C1C(=O)c2ccc(C(=O)c3ccc4c(c3)C(=O)C(C(=O)[C@H](CC(=O)O)NC(=O)OC(C)(C)C)C4=O)cc2C1=O` (stereo partly drawn) [Example 188, (3S)-3-{[(tert-butoxy)carbonyl]amino}-4-(5-{2-[(2S)-2-{[(tert-butoxy)carbonyl]amino}-3-carboxypropanoyl]-1,3-dioxo-2,3-dihydro-1H-indene-5-carbonyl}-1,3-dioxo-2,3-dihydro-1H-inden-2-yl)-4-oxobutanoic acid], for which the inhibition at 5 µM was 88%, the inhibition at 10 µM came to 94% and the IC50 worked out at 2.3 µM.

As for `CC(C)CCCC(=O)C1C(=O)c2ccc(C(=O)c3ccc4c(c3)C(=O)C(C(=O)CCCC(C)C)C4=O)cc2C1=O` (stereo not shown) [Example 189, 2-(5-methylhexanoyl)-5-[2-(5-methylhexanoyl)-1,3-dioxo-2,3-dihydro-1H-indene-5-carbonyl]-2,3-dihydro-1H-indene-1,3-dione], the inhibition at 5 µM is 62% and the inhibition at 10 µM was 71%.

Take `O=C(c1ccc2c(c1)C(=O)C(C(=O)Cc1ccccc1)C2=O)c1ccc2c(c1)C(=O)C(C(=O)Cc1ccccc1)C2=O` (stereo not shown) [Example 190, 5-[1,3-dioxo-2-(2-phenylacetyl)-2,3-dihydro-1H-indene-5-carbonyl]-2-(2-phenylacetyl)-2,3-dihydro-1H-indene-1,3-dione]: the inhibition at 5 µM amounted to 79% and the inhibition at 10 µM came out at 86%.

Take `CC(C)C(=O)NCC(=O)C1C(=O)c2ccc(S(=O)(=O)c3ccc4c(c3)C(=O)C(C(=O)CNC(=O)C(C)C)C4=O)cc2C1=O` (stereo not shown) [Example 191, 2-methyl-N-{2-[5-({2-[2-(2-methylpropanamido)acetyl]-1,3-dioxo-2,3-dihydro-1H-inden-5-yl}sulfonyl)-1,3-dioxo-2,3-dihydro-1H-inden-2-yl]-2-oxoethyl}propanamide]: the inhibition at 5 µM was 74%, the inhibition at 10 µM was 79% and the IC50 was ~3 µM.

As for `CC(C)(C)OC(=O)N1CCC[C@H]1C(=O)C1C(=O)c2ccc(Oc3ccc4c(c3)C(=O)C(C(=O)[C@@H]3CCCN3C(=O)OC(C)(C)C)C4=O)cc2C1=O` (stereo partly drawn) [Example 193, tert-butyl (2S)-2-[5-({2-[(2S)-1-[(tert-butoxy)carbonyl]pyrrolidine-2-carbonyl]-1,3-dioxo-2,3-dihydro-1H-inden-5-yl}oxy)-1,3-dioxo-2,3-dihydro-1H-indene-2-carbonyl]pyrrolidine-1-carboxylate], the inhibition at 5 µM came to 37% and the inhibition at 10 µM turned out to be 40%.

Consider `CC(C)CCCC(=O)C1C(=O)c2ccc(C(c3ccc4c(c3)C(=O)C(C(=O)CCCC(C)C)C4=O)(C(F)(F)F)C(F)(F)F)cc2C1=O` (stereo not shown) [Example 194, 5-{1,1,1,3,3,3-hexafluoro-2-[2-(5-methylhexanoyl)-1,3-dioxo-2,3-dihydro-1H-inden-5-yl]propan-2-yl}-2-(5-methylhexanoyl)-2,3-dihydro-1H-indene-1,3-dione], for which the IC50 was ~1.5 µM.

Take `CC(C)(C)OC(=O)N1CCC[C@H]1C(=O)C1C(=O)c2ccc(C(c3ccc4c(c3)C(=O)C(C(=O)[C@@H]3CCCN3C(=O)OC(C)(C)C)C4=O)(C(F)(F)F)C(F)(F)F)cc2C1=O` (stereo partly drawn) [Example 195, tert-butyl (2S)-2-[5-(2-{2-[(2S)-1-[(tert-butoxy)carbonyl]pyrrolidine-2-carbonyl]-1,3-dioxo-2,3-dihydro-1H-inden-5-yl}-1,1,1,3,3,3-hexafluoropropan-2-yl)-1,3-dioxo-2,3-dihydro-1H-indene-2-carbonyl]pyrrolidine-1-carboxylate]: the IC50 worked out at 4 µM.

As for `C/C(O)=C1\C(=O)c2ccc(C#Cc3ccc4c(c3)C(=O)/C(=C(/C)O)C4=O)cc2C1=O` [Example 196], the inhibition at 5 µM stood at 88%, the inhibition at 10 µM amounted to 96% and the IC50 worked out at 5.3 µM.

For `CC(C)(C)OC(=O)N1CCC[C@H]1C(=O)C1C(=O)c2ccc(-c3ccc4c(c3)C(=O)C(C(=O)[C@@H]3CCCN3C(=O)OC(C)(C)C)C4=O)cc2C1=O` (stereo partly drawn) [Example 209, tert-butyl (2S)-2-{2′-[(2S)-1-[(tert-butoxy)carbonyl]pyrrolidine-2-carbonyl]-1,1′,3,3′-tetraoxo-1H,1′H,2H,2′H,3H,3′H-[5,5′-biindene]-2-carbonyl}pyrrolidine-1-carboxylate], the inhibition at 5 µM worked out at 75%, the inhibition at 10 µM was determined as 96% and the IC50 came to 4.2 µM.

Take `CC(C)(C)OC(=O)N1CSC[C@H]1C(=O)C1C(=O)c2ccc(-c3ccc4c(c3)C(=O)C(C(=O)[C@@H]3CSCN3C(=O)OC(C)(C)C)C4=O)cc2C1=O` (stereo partly drawn) [Example 210, tert-butyl (4R)-4-{2′-[(4R)-3-[(tert-butoxy)carbonyl]-1,3-thiazolidine-4-carbonyl]-1,1′,3,3′-tetraoxo-1H,1′H,2H,2′H,3H,3′H-[5,5′-biindene]-2-carbonyl}-1,3-thiazolidine-3-carboxylate]: the inhibition at 5 µM stood at 62%, the inhibition at 10 µM worked out at 94% and the IC50 is ~5 µM.

As to `CC(C)(C)OC(=O)N1CC2(CC(C(=O)C3C(=O)c4ccc(-c5ccc6c(c5)C(=O)C(C(=O)C5CC7(C5)CN(C(=O)OC(C)(C)C)C7)C6=O)cc4C3=O)C2)C1` (stereo not shown) [Example 211, tert-butyl 6-(2′-{2-[(tert-butoxy)carbonyl]-2-azaspiro[3.3]heptane-6-carbonyl}-1,1′,3,3′-tetraoxo-1H,1′H,2H,2′H,3H,3′H-[5,5′-biindene]-2-carbonyl)-2-azaspiro[3.3]heptane-2-carboxylate], the inhibition at 5 µM is 76%, the inhibition at 10 µM is 95% and the IC50 is 3.3 µM.

Turning to `CC(C)(C)OC(=O)N1CCCC[C@H]1C(=O)C1C(=O)c2ccc(-c3ccc4c(c3)C(=O)C(C(=O)[C@@H]3CCCCN3C(=O)OC(C)(C)C)C4=O)cc2C1=O` (stereo partly drawn) [Example 212, tert-butyl (2S)-2-{2′-[(2S)-1-[(tert-butoxy)carbonyl]piperidine-2-carbonyl]-1,1′,3,3′-tetraoxo-1H,1′H,2H,2′H,3H,3′H-[5,5′-biindene]-2-carbonyl}piperidine-1-carboxylate], the inhibition at 5 µM amounted to 91%, the inhibition at 10 µM came to 88% and the IC50 was found to be 5.5 µM.

On to `COC(=O)N1CCC[C@H]1C(=O)C1C(=O)c2ccc(-c3ccc4c(c3)C(=O)C(C(=O)[C@@H]3CCCN3C(=O)OC)C4=O)cc2C1=O` (stereo partly drawn) [Example 213, methyl (2S)-2-{2′-[(2S)-1-(methoxycarbonyl)pyrrolidine-2-carbonyl]-1,1′,3,3′-tetraoxo-1H,1′H,2H,2′H,3H,3′H-[5,5′-biindene]-2-carbonyl}pyrrolidine-1-carboxylate], for which the inhibition at 5 µM is 87%, the inhibition at 10 µM turned out to be 89% and the IC50 turned out to be 4.8 µM.

With `C[C@@H]1CC[C@@H](C(=O)C2C(=O)c3ccc(-c4ccc5c(c4)C(=O)C(C(=O)[C@@H]4CC[C@@H](C)N4C(=O)OC(C)(C)C)C5=O)cc3C2=O)N1C(=O)OC(C)(C)C` (stereo partly drawn) [Example 214, tert-butyl (2S,5R)-2-{2′-[(2S,5R)-1-[(tert-butoxy)carbonyl]-5-methylpyrrolidine-2-carbonyl]-1,1′,3,3′-tetraoxo-1H,1′H,2H,2′H,3H,3′H-[5,5′-biindene]-2-carbonyl}-5-methylpyrrolidine-1-carboxylate], the IC50 is 4 µM.

For `CC(C)(C)OC(=O)N1C[C@H](F)C[C@H]1C(=O)C1C(=O)c2ccc(-c3ccc4c(c3)C(=O)C(C(=O)[C@@H]3C[C@@H](F)CN3C(=O)OC(C)(C)C)C4=O)cc2C1=O` (stereo partly drawn) [Example 215, tert-butyl (2S,4R)-2-{2′-[(2S,4R)-1-[(tert-butoxy)carbonyl]-4-fluoropyrrolidine-2-carbonyl]-1,1′,3,3′-tetraoxo-1H,1′H,2H,2′H,3H,3′H-[5,5′-biindene]-2-carbonyl}-4-fluoropyrrolidine-1-carboxylate], the IC50 is 2.4 µM.

Consider `CC(C)(C)OC(=O)N1C[C@@H]2[C@H](C1)[C@H]2C(=O)C1C(=O)c2ccc(-c3ccc4c(c3)C(=O)C(C(=O)[C@H]3[C@@H]5CN(C(=O)OC(C)(C)C)C[C@@H]53)C4=O)cc2C1=O` (stereo partly drawn) [Example 216, tert-butyl (1R,5S,6R)-6-{2′-[(1R,5S,6R)-3-[(tert-butoxy)carbonyl]-3-azabicyclo[3.1.0]hexane-6-carbonyl]-1,1′,3,3′-tetraoxo-1H,1′H,2H,2′H,3H,3′H-[5,5′-biindene]-2-carbonyl}-3-azabicyclo[3.1.0]hexane-3-carboxylate], for which the inhibition at 5 µM turned out to be 82%, the inhibition at 10 µM worked out at 91% and the IC50 is 2.5 µM.

Regarding `COC(=O)[C@@H]1C[C@H]1C(=O)C1C(=O)c2ccc(C(=O)c3ccc4c(c3)C(=O)C(C(=O)[C@@H]3C[C@H]3C(=O)OC)C4=O)cc2C1=O` (stereo partly drawn) [Example 217, methyl (1R,2R)-2-(5-{2-[(1R,2R)-2-(methoxycarbonyl)cyclopropanecarbonyl]-1,3-dioxo-2,3-dihydro-1H-indene-5-carbonyl}-1,3-dioxo-2,3-dihydro-1H-indene-2-carbonyl)cyclopropane-1-carboxylate], the inhibition at 5 µM was 91%, the inhibition at 10 µM came to 95% and the IC50 was determined as 1.2 µM.
